# Laboratory results from the supplement of paper PMC10307832.
# Tests used:
# Assay in all cases: relative viability (nuclei count vs DMSO), 5 days (fraction); higher = more cells survive
# [1] = compound: COc1cc(-c2nn([C@H]3CC[C@H](N4CCN(C(C)=O)CC4)CC3)c3ncnc(N)c23)ccc1NC(=O)c1cc2ccccc2n1C + CC1(C)CCC(c2ccc(Cl)cc2)=C(CN2CCN(c3ccc(C(=O)NS(=O)(=O)c4ccc(N[C@H](CCN5CCOCC5)CSc5ccccc5)c(S(=O)(=O)C(F)(F)F)c4)cc3)CC2)C1 [Navitoclax] (partner 0.5 µM)
# In short: (§1)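 Lung cancer cell lines were pin-tool dosed in 1536-well plates on the day after seeding, with either a lone drug or a fixed anchor-drug dose plus five library-drug doses (not always all listed) in √10 steps. Nuclei were counted on 4× images after 5 days. Relative viability is the ratio of treated-well to vehicle-well nuclei counts, with each value a median of duplicate plates.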
# Midostaurin + Olaparib = compound: CO[C@@H]1[C@H](N(C)C(=O)c2ccccc2)C[C@H]2O[C@]1(C)n1c3ccccc3c3c4c(c5c6ccccc6n2c5c31)C(=O)NC4 [Midostaurin] + O=C(c1cc(Cc2n[nH]c(=O)c3ccccc23)ccc1F)N1CCN(C(=O)C2CC2)CC1 [Olaparib] (partner 8 µM)
# In short: as §1
# Midostaurin + Tozasertib = compound: CO[C@@H]1[C@H](N(C)C(=O)c2ccccc2)C[C@H]2O[C@]1(C)n1c3ccccc3c3c4c(c5c6ccccc6n2c5c31)C(=O)NC4 [Midostaurin] + Cc1cc(Nc2cc(N3CCN(C)CC3)nc(Sc3ccc(NC(=O)C4CC4)cc3)n2)n[nH]1 [Tozasertib] (partner 0.1 µM)
# In short: as §1
# [2] = compound: COc1cc(-c2nn([C@H]3CC[C@H](N4CCN(C(C)=O)CC4)CC3)c3ncnc(N)c23)ccc1NC(=O)c1cc2ccccc2n1C + CS(=O)(=O)CCNCc1ccc(-c2ccc3ncnc(Nc4ccc(OCc5cccc(F)c5)c(Cl)c4)c3c2)o1 [Lapatinib] (partner 2 µM)
# In short: as §1
# [3] = compound: COc1cc(-c2nn([C@H]3CC[C@H](N4CCN(C(C)=O)CC4)CC3)c3ncnc(N)c23)ccc1NC(=O)c1cc2ccccc2n1C + CC(=O)c1c(C)c2cnc(Nc3ccc(N4CCNCC4)cn3)nc2n(C2CCCC2)c1=O [Palbociclib] (partner 0.5 µM)
# In short: as §1
cell line,measurement,setting,value
UMC-11,relative viability,[1]; first compound 0.0128 µM,0.315
same,relative viability,[1]; first compound 0.04048 µM,0.323
same,relative viability,[1]; first compound 0.128 µM,0.28
same,relative viability,[1]; first compound 1.28 µM,0.297
same,relative viability,Midostaurin + Olaparib; first compound 0.01 µM,0.354
same,relative viability,Midostaurin + Olaparib; first compound 0.03162 µM,0.387
same,relative viability,Midostaurin + Olaparib; first compound 0.1 µM,0.303
same,relative viability,Midostaurin + Olaparib; first compound 0.3162 µM,0.207
same,relative viability,Midostaurin + Tozasertib; first compound 0.01 µM,0.208
same,relative viability,Midostaurin + Tozasertib; first compound 0.03162 µM,0.18
same,relative viability,Midostaurin + Tozasertib; first compound 0.1 µM,0.196
same,relative viability,Midostaurin + Tozasertib; first compound 0.3162 µM,0.174
same,relative viability,[2]; first compound 0.0128 µM,1.04
same,relative viability,[2]; first compound 0.04048 µM,0.978
same,relative viability,[2]; first compound 0.128 µM,0.712
same,relative viability,[2]; first compound 1.28 µM,0.739
same,relative viability,[3]; first compound 0.0128 µM,0.349
same,relative viability,[3]; first compound 0.04048 µM,0.341
same,relative viability,[3]; first compound 0.128 µM,0.335
same,relative viability,[3]; first compound 1.28 µM,0.341
